Source: US12448369B2 (Edgewise Therapeutics, Inc., priority 2023, dated 2025)

Key:
[1] = tested on: Rabbit Psoas myofibrils (skeletal myosin ATPase); assay: Myofibril ATPase assay, rabbit psoas (skeletal) myofibrils; assay type: biochemical; settings: rabbit psoas myofibrils
Procedure, shortened: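 Values are concentrations giving 75% (Y75) or 125% (Y125) of vehicle ATPase activity, from 4-parameter logistic fits of normalized rates. Rates came from linear regression of A340 over 75 min, NADH oxidation coupled to ADP via PK-LDH. Enzyme source: skeletal myofibrils from rabbit psoas, pH 7.0 pCa buffer.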

[2] = biological target: T1, Porcine ventricle myofibrils (ventricular myosin ATPase) (Sus scrofa, UniProt P79293); assay: Myofibril ATPase assay, porcine ventricle myofibrils; assay type: biochemical, porcine (Yucatan minipigs); settings: porcine ventricle myofibrils
T1 construct: Myofibrils from porcine cardiac muscle was isolated from the left ventricle of Yucatan minipigs; tissue Exemplar Genetics; host or cells: left ventricle of Yucatan minipigs, myofibrils prepared in house
Procedure, shortened: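 Read-out: A340 kinetic, NADH consumption coupled to ADP via PK-LDH, 75 min. Yucatan minipig LV myofibrils, pCa buffer (PIPES/CaCl2/EGTA, pH 7.0). Linear-regression slope (mAU/min), vehicle = 100%, 4PL fit; Y75 or Y125 reported.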

[3] = tested on: Porcine atria myofibrils (atrial myosin ATPase); assay: Myofibril ATPase assay, porcine atria myofibrils; assay type: biochemical; settings: porcine atria myofibrils
Procedure, shortened: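 Y75 (25% inhibition) or Y125 (activation) values come from 4-parameter logistic fits of vehicle-normalized rates. Rates are linear-regression slopes of NADH absorbance at 340 nm, read kinetically over 75 min, with ADP coupled to NADH oxidation via pyruvate kinase/lactate dehydrogenase.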

[4] = Y75 value (75% activity relative to no compound)

T1 sequence (P79293 whole entry): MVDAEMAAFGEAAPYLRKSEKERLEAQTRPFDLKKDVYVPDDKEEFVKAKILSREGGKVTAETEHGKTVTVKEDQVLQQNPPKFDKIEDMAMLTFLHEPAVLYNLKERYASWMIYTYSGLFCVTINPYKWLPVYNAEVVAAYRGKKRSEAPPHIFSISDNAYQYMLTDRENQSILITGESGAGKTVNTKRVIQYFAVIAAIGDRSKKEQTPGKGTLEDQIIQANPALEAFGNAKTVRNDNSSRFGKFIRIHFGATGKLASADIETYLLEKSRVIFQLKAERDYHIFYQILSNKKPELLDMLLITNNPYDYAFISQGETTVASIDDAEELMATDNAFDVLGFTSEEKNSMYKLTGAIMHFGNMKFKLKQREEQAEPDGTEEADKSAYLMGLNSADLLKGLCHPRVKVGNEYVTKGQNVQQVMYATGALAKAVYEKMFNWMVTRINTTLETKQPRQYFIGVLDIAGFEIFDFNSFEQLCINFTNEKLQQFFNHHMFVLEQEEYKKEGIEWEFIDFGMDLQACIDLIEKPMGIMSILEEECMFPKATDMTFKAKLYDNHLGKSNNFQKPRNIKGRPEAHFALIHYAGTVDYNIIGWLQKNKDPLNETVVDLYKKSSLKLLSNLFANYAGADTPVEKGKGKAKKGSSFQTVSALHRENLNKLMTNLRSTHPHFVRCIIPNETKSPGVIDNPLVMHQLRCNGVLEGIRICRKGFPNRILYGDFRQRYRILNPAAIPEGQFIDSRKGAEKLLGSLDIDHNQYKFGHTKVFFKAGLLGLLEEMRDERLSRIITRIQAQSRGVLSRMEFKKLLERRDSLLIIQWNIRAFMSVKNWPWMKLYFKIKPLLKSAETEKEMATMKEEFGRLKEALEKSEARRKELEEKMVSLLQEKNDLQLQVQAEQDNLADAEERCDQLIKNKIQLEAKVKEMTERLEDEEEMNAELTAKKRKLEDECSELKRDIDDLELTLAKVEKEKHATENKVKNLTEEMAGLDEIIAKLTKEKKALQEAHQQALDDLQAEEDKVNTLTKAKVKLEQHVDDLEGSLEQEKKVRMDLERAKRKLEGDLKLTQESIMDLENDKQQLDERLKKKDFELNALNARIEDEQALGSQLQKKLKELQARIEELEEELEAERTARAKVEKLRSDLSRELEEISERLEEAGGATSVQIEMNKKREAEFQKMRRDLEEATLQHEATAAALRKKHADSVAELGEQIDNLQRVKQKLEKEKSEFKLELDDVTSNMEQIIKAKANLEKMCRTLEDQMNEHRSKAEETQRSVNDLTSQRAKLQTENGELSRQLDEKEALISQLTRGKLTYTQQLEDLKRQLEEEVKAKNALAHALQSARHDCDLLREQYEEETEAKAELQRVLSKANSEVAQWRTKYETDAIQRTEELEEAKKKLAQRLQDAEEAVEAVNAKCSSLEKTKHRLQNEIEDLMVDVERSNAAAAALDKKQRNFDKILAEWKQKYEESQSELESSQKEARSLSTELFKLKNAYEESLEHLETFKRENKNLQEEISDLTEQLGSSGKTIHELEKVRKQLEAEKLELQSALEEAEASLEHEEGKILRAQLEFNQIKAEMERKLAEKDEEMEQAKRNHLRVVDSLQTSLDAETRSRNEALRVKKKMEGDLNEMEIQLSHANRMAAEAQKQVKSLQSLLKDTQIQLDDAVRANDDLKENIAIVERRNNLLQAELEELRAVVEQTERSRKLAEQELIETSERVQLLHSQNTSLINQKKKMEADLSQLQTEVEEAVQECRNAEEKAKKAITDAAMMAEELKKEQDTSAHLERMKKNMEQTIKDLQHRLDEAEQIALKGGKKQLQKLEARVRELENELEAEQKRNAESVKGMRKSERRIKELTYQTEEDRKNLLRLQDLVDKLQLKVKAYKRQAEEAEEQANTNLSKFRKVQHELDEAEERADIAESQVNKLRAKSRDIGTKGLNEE

Row | SMILES | Skeletal EC25 ([1]; Y75 value (no ‡ mark)) | Ventricular EC25 ([2]; Y75 value (no ‡ mark)) | Atrial EC25 ([3]; Y75 value (no ‡ mark)) | Skeletal EC25 ([1]; Y75 value) | Ventricular EC25 ([2]; Y75 value) | Atrial EC25 [3, 4] | Ventricular EC25 ([2]; ‡ Y125 value, not a Y75 value (125% activity relative to no compound))
1 | C[C@@H](NC(=O)C1(c2cc3c(F)c(F)ccc3[nH]c2=O)CC1)c1ncc(C#N)cc1F (single isomer, unassigned) [compound 2592] | 3.54 µM | 0.47 µM | 0.13 µM |  |  |  | 
2 | Cc1c(CC(=O)N[C@H](C)c2ncc(C#N)cc2F)c(=O)[nH]c2cc(F)ccc12 [compound 1078] | 2.27 µM | 2.05 µM | 2.57 µM |  |  |  | 
3 | CC[C@@H](NC(=O)Cc1c(C)c2c(C)c(F)ccc2[nH]c1=O)c1ncc(C#N)cn1 (single isomer, unassigned) [compound 4833] | 0.25 µM | 1.04 µM | 0.52 µM |  |  |  | 
4 | Cc1c([C@@H](C)C(=O)N[C@@H](C)c2ccc(F)cc2F)c(=O)[nH]c2ccc(C(F)(F)F)nc12 (single isomer, unassigned) [compound 370] |  |  |  | 0.51 µM | 48.16 µM | 0.06 µM | 
5 | C[C@@H](NC(=O)Cc1c(C2CC2)c2c(F)c(F)ccc2[nH]c1=O)c1ccc(C#N)cn1 [compound 25] | 1.68 µM | 100.00 µM | 100.00 µM |  |  |  | 
6 | Cc1nncc2[nH]c(=O)c(CC(=O)N[C@H](C)c3ccc(F)cc3F)cc12 [compound 499] |  |  |  | 100 µM | 100 µM | 100 µM | 
7 | Cc1c(CC(=O)N[C@H](CO)c2ccc(F)cc2F)c(=O)[nH]c2ccnc(C#N)c12 [compound 229] |  |  |  | 4.20 µM | 34.95 µM | 8.21 µM | 
8 | Cc1nccc2[nH]c(=O)c(C3(C(=O)N[C@H](C)c4ccc(C#N)cc4F)CC3)c(C)c12 (single isomer, unassigned) [compound 3516] |  |  |  | 0.24 µM | 1.49 µM | 0.51 µM | 
9 | Cc1nnccc1[C@H](C)NC(=O)Cc1c(C)c2cc(F)ccc2[nH]c1=O [compound 1091] | 100.00 µM | 80.11 µM | 53.30 µM |  |  |  | 
10 | N#Cc1cnc2c(c1)CC[C@@H]2NC(=O)Cc1cc2c(F)c(F)ccc2[nH]c1=O (single isomer, unassigned) [compound 8] | 100.00 µM | 100.00 µM | 100.00 µM |  |  |  | 
11 | C[C@H](NC(=O)C(F)(F)c1cc2c(F)c(F)ccc2[nH]c1=O)c1cccc(C#N)n1 (single isomer, unassigned) [compound 2572] | 100.00 µM |  | 100.00 µM |  |  |  | 100.00‡ μM
12 | C[C@H](NC(=O)Cc1cc2c(F)c(F)ccc2[nH]c1=O)c1ccc(F)cc1F [compound 118] | 0.03 µM | 0.30 µM | 0.06 µM |  |  |  | 
13 | Cc1c(CC(=O)N[C@@H](C)c2ccc(F)cc2F)c(=O)[nH]c2ccnc(NCC(C)C)c12 [compound 277] |  |  |  | 82.10 µM | 84.29 µM | 100.00 µM | 
14 | Cc1c(CC(=O)N[C@@H](C)c2ccc(F)cc2F)c(=O)[nH]c2ccnc(NC3CC3)c12 [compound 276] |  |  |  | 0.14 µM | 15.06 µM | 1.25 µM | 
15 | C[C@H](NC(=O)[C@@H](C)c1c(C(F)(F)F)c2cc(F)ccc2[nH]c1=O)c1ccc(F)cc1F (single isomer, unassigned) [compound 57] | 0.07 µM | 100.00 µM | 0.15 µM |  |  |  | 
16 | C[C@@H](NC(=O)Cc1c(C2CC2)c2c(F)cccc2[nH]c1=O)c1ncc(C#N)cc1F [compound 1143] | 1.78 µM | 4.45 µM | 1.44 µM |  |  |  | 
17 | C[C@H](NC(=O)Cc1c(C2CC2)c2cc(F)ccc2[nH]c1=O)c1ncc(C#N)cc1F [compound 40] | 0.02 µM | 0.41 µM | 0.47 µM |  |  |  | 
18 | Cc1c(CC(=O)N[C@@H]2c3c(F)cc(F)cc3OC2(C)C)c(=O)[nH]c2ccnc(C#N)c12 (single isomer, unassigned) [compound 188] |  |  |  | 26.50 µM | 39.56 µM | 2.43 µM | 
19 | Cc1nccc2[nH]c(=O)c(CC(=O)N[C@@H](C)c3ccncc3)c(C)c12 (single isomer, unassigned) [compound 334] |  |  |  | 100.00 µM | 100.00 µM | 100.00 µM | 
20 | Cc1c(CC(=O)N[C@H](CO)c2ncc(C#N)cc2F)c(=O)[nH]c2ccnc(C#N)c12 (single isomer, unassigned) [compound 245] |  |  |  | 0.93 µM | 9.46 µM | 8.37 µM | 

Row | SMILES | Skeletal EC25 ([1]; Y75 value (no ‡ mark)) | Ventricular EC25 ([2]; Y75 value (no ‡ mark)) | Atrial EC25 ([3]; Y75 value (no ‡ mark)) | Skeletal EC25 ([1]; Y75 value) | Ventricular EC25 ([2]; Y75 value) | Atrial EC25 [3, 4] | Ventricular EC25 ([2]; ‡ Y125 value, not a Y75 value (125% activity relative to no compound))
21 | Cc1nccc2[nH]c(=O)c(CC(=O)N[C@H](C)c3cnc(C#N)cn3)c(C)c12 [compound 486] |  |  |  | 0.20 µM | 1.47 µM | 1.49 µM | 
22 | CC(C(=O)N[C@@H](C)c1ccc(F)cc1F)c1c(C(F)(F)F)c2cc(F)ccc2[nH]c1=O (stereo partly drawn) [compound 113] | 0.04 µM | 1.61 µM | 0.10 µM |  |  |  | 
23 | Cc1c(CC(=O)N[C@H](C)c2ncc(C#N)cc2F)c(=O)[nH]c2ccc(O)nc12 [compound 165] |  |  |  | 47.80 µM | 100.00 µM | 2.77 µM | 
24 | C[C@@H](NC(=O)Cc1cc2c(F)c(F)ccc2[nH]c1=O)c1ncc(F)cc1F [compound 33] | 0.29 µM | 0.46 µM | 0.17 µM |  |  |  | 
25 | C[C@@H](NC(=O)Cc1cc2cc(F)c(F)cc2[nH]c1=O)c1ccc(C#N)cn1 [compound 1114] | 22.82 µM | 8.08 µM | 8.40 µM |  |  |  | 
26 | C[C@H](NC(=O)Cc1c(C2CC2)c2cc(F)ccc2[nH]c1=O)c1ccc(C#N)cn1 [compound 56] | 0.12 µM | 3.98 µM | 2.47 µM |  |  |  | 
27 | Cc1c(C(C)C(=O)N[C@@H](C)c2ccc(F)cc2F)c(=O)[nH]c2ccncc12 (stereo partly drawn) [compound 440] |  |  |  | 2.78 µM | 100.00 µM | 34.65 µM | 
28 | CNc1c(CC(=O)N[C@@H](C)c2ccc(F)cc2F)c(=O)[nH]c2ccccc12 [compound 128] | 0.17 µM | 9.83 µM | 0.90 µM |  |  |  | 
29 | Cc1c(CC(=O)N[C@H](C)c2ncc(C#N)cn2)c(=O)[nH]c2ccc(C#N)cc12 (single isomer, unassigned) [compound 2027] | 41.80 µM | 100.00 µM | 1.48 µM |  |  |  | 
30 | Cc1nccc2[nH]c(=O)c(CC(=O)N[C@H](CO)c3ccc(C#N)cc3F)c(C)c12 (single isomer, unassigned) [compound 238] |  |  |  | 2.87 µM | 11.53 µM | 8.52 µM | 
31 | Cc1nccc2[nH]c(=O)c(CC(=O)N[C@@H]3COc4cc(C#N)cc(F)c43)c(C)c12 (single isomer, unassigned) [compound 177] |  |  |  | 0.02 µM | 0.09 µM | 0.06 µM | 
32 | C[C@@H](NC(=O)Cc1c(C#N)c2cc(F)ccc2[nH]c1=O)c1ncc(C#N)cc1F [compound 1094] | 2.26 µM | 100.00 µM | 100.00 µM |  |  |  | 
33 | Cc1cnncc1[C@@H](C)NC(=O)Cc1c(C)c2c(C)nccc2[nH]c1=O [compound 480] |  |  |  | 33.82 µM | 100.00 µM | 100.00 µM | 
34 | C[C@@H](NC(=O)C(F)(F)c1cc2cc(F)ccc2[nH]c1=O)c1nccc(C#N)n1 (single isomer, unassigned) [compound 2559] | 100.00 µM | 100.00 µM | 100.00 µM |  |  |  | 
35 | Cc1nncc2[nH]c(=O)c(CC(=O)N[C@H](C)c3ncc(C#N)cc3F)cc12 [compound 451] |  |  |  | 100.00 µM | 100.00 µM | 100.00 µM | 
36 | C[C@@H](NC(=O)C1(c2cc3c(F)c(F)ccc3[nH]c2=O)CC1)c1nccc(C#N)n1 (single isomer, unassigned) [compound 2505] | 100.00 µM | 100.00 µM | 100.00 µM |  |  |  | 
37 | Cc1nccc2[nH]c(=O)c(CC(=O)N[C@H](CO)c3ncc(F)cc3F)c(C)c12 (single isomer, unassigned) [compound 303] |  |  |  | 40.83 µM | 100.00 µM | 100.00 µM | 
38 | Cc1ccncc1[C@H](C)NC(=O)Cc1c(C)c2cc(F)ccc2[nH]c1=O [compound 1049] | 29 µM | 100.00 µM | 100.00 µM |  |  |  | 
39 | Cc1ccc2[nH]c(=O)c(CC(=O)N[C@H](C)c3ncc(C#N)cc3F)cc2n1 [compound 462] |  |  |  | 100.00 µM | 100.00 µM | 65.72 µM | 
